One data set deals with 4T1-bearing Balb/C mice. Put plainly: In vivo biodistribution in tumor-bearing mice. The settings on record: 4T1-bearing mice, 2 h after i.v. 10 mg DOX/kg and 10 mg Cur/kg. How it is done: After 2 h administration, the mice were sacrificed, and the tumor, heart, liver, lung, and kidney were excised, weighed, homogenized in 0.5 mL methanol, centrifuged and analyzed by LC-MS/MS. Meanwhile, for qualitative analysis, the tumors were frozen in cryoembedding media (OCT) and sectioned at 20 μm. The sections were fixed with 4% paraformaldehyde for 10 min, stained for nuclei with DAPI, and observed by CLSM.

Data set [1] deals with 4T1 tumor-bearing mice. Put plainly: Serum CK, CKMB, LDH and AST (organ toxicity) by ELISA kit. It counts as in vivo, BALB/c mice. The settings on record: 4T1-bearing mice, end of experiment; DOX-Sol vs saline, others vs DOX-Sol. How it is done: The toxicity of DOX formulations in vivo were evaluated by enzyme-linked immunosorbent assay (ELISA) kit. At the end of the experiment, the blood of each mouse was extracted by eyeballs and the serum was separated. Then, the activities of creatine kinase (CK), creatine kinase MB (CKMB), lactate dehydrogenase (LDH) and aspartate transaminase (AST) in serum were evaluated to investigate the organ toxicity.

A short description of data set [2]: In vivo pharmacokinetics after intravenous injection. The settings on record: rat, i.v., DOX 5 mg/kg and Cur 5 mg/kg, analyte DOX. On the procedure:
Male Sprague–Dawley rats were randomly assigned to five groups (five rats per group). DOX-Sol, DOX + Cur, TPGS2k-PMs, HA-PMs and HA/TPGS2k-PMs were injected intravenously with at the dose of 5 mg/kg DOX and 5 mg/kg Cur, respectively. About 300 μL of blood samples were collected from the orbital venous plexus and immediately centrifuged to obtain the plasma fraction. Plasma samples were extracted through methanol protein precipitation method before analyzed by LC–MS/MS system.

The next data set concerns MCF-7/Adr cells. Put plainly: MTT cytotoxicity assay and MDR reversal in multidrug-resistant MCF-7/Adr cells. The class given is cell-based. The settings on record: for resistant index (RI): MCF-7/Adr vs MCF-7; for IC50: Homo sapiens, NCI/ADR-RES, MCF-7/Adr, DOX concentration. On the procedure: The sensitive MCF-7 and multidrug-resistant MCF-7/Adr cells were obtained from Nanjing Kaiji Biotech. Ltd. Co. (Jiangsu, China). Cells were cultured in RPMI-1640 medium containing 10% (v/v) FBS and 1% penicillin–streptomycin at 37 °C with 5% CO2. Additionally, MCF-7/Adr cells were incubated in medium with 1 μg/mL DOX.
The cytotoxicity of various formulations against MCF-7 and MCF-7/Adr cells was assessed by MTT assay. Briefly, MCF-7 and MCF-7/Adr cells were seeded in 96-well plates at a density of 5 × 10^4 cells/well/0.1 mL 1640 culture medium and cultured for 24 h. Then, the cells were treated with DOX-Sol, DOX + Cur, HA-PMs, TPGS2k-PMs and HA/TPGS2k-PMs with multiple concentrations of DOX for 48 and 72 h, respectively. The cells incubated with medium only were utilized as control. At time interval, 20 μL MTT (5 mg/mL) was added and incubated for another 4 h. After that, the medium of each well was discarded and added 200 μL DMSO. The absorbance of each well was measured at 570 nm using a microplate reader. Half-maximal inhibitory concentration (IC50), the resistant index (RI) and reversal factor (RF) were calculated and used to evaluate MDR reversal effects by micelles(Ling et al., [2010]; Wang et al., [2012]).

The test system of data set [3] is 4T1 tumor-bearing mice. Put plainly: In vivo antitumor efficacy, body weight and survival. Also on record: species or system BALB/c mice. The settings on record: 4T1-bearing mice, i.v. 10 mg/kg DOX. How it is done: The antitumor efficacy and safety in vivo were evaluated using 4T1 tumor-bearing mice. Briefly, 1 × 10^6 4T1 cells were subcutaneously injected into the right axilla of the female BALB/c mice. […] Body weights and tumor volumes (V = ab^2/2, where a was major axis and b was minor axis measured by slide caliper) were measured every two days after administration. At the end of the experiment, mice were sacrificed, and then the tumors were excised, weighted and photographed.

Molecules are shown by their SMILES. Where “and” joins values, the source holds several entries; their conditions need not be identical. Equal entries are not always repeated.

Turning to `COc1cccc2c1C(=O)c1c(O)c3c(c(O)c1C2=O)C[C@@](O)(C(=O)CO)C[C@@H]3O[C@H]1C[C@H](N)[C@H](O)[C@H](C)O1` [DOX-Sol, Doxorubicin], the “DOX accumulation in tumor” value in the data set on 4T1-bearing Balb/C mice is recorded as “low DOX accumulation”. The “values of CKMB, CK, LDH and AST in serum” value with 4T1 tumor-bearing mice [1] is “significantly higher than those in saline-treated groups”. Further, the “V of DOX” value in data set [2] was 0.03 ± 0.02 L/kg. Also, the “resistant index (RI)” value in the data set with MCF-7/Adr cells (48h, listed as DOX) was 142 and 142.01; in the data set with MCF-7/Adr cells (72h) it was 89.82. In addition, the IC50 with MCF-7/Adr cells (48h) was 106 µg/mL; in the data set on MCF-7/Adr cells (72h) it was 45.8 µg/mL. The “death of mice during treatment” value with 4T1 tumor-bearing mice [3] (10 mice per group) was “five mice suddenly died after nine days treatment”. The body weight change result with 4T1 tumor-bearing mice [3] is on record as “markedly decreased”.
